Source: ChEMBL document CHEMBL6134779, “Design of Proteolytic-Resistant Antifungal Peptides by Utilizing Minimum d-Amino Acid Ratios” (J Med Chem, 2024)
Values after ≈ are worked out from the molar mass of the structure shown. Active and inactive are the calls of the source. The calls are words filed in the database; no cut-off is given here.

Experiments:
[1] = test system: Candida albicans; experiment: Antifungal activity against Candida albicans CGMCC 2.2086 assessed as inhibition of fungal growth incubated for 48 hrs; format: functional
[2] = test system: Candida tropicalis; experiment: Antifungal activity against Candida tropicalis CGMCC 2.1975 assessed as inhibition of fungal growth incubated for 48 hrs; format: functional
[3] = test system: Candida albicans; experiment: Antifungal activity against Candida albicans SP3902 assessed as inhibition of fungal growth incubated for 48 hrs; format: functional
[4] = test system: Candida albicans; experiment: Antifungal activity against Candida albicans SP3903 assessed as inhibition of fungal growth incubated for 48 hrs; format: functional
[5] = test system: Candida albicans; experiment: Antifungal activity against Fluconazole-resistant Candida albicans 58288 assessed as inhibition of fungal growth incubated for 48 hrs; format: functional
[6] = test system: Candida albicans; experiment: Antifungal activity against Candida albicans SP3876 assessed as inhibition of fungal growth incubated for 48 hrs; format: functional
[7] = test system: Candida albicans; experiment: Antifungal activity against Candida albicans SP3931 assessed as inhibition of fungal growth incubated for 48 hrs; format: functional
[8] = test system: Candida albicans; experiment: Antifungal activity against Candida albicans 14936 assessed as inhibition of fungal growth incubated for 48 hrs; format: functional
[9] = test system: Candida albicans; experiment: Antifungal activity against Candida albicans 17546 assessed as inhibition of fungal growth incubated for 48 hrs; format: functional
[10] = test system: Candida albicans; experiment: Antifungal activity against Fluconazole-resistant Candida albicans 56214 assessed as inhibition of fungal growth incubated for 48 hrs; format: functional
[11] = test system: Candida albicans; experiment: Antifungal activity against Candida albicans 56452 assessed as inhibition of fungal growth incubated for 48 hrs; format: functional
[12] = test system: Candida parapsilosis; experiment: Antifungal activity against Candida parapsilosis CGMCC 2.3989 assessed as inhibition of fungal growth incubated for 48 hrs; format: functional; settings: Lodderomyces parapsilosis
[13] = test system: Candida albicans; experiment: Antifungal activity against Candida albicans CGMCC 2.2086 infected in C57BL/6 mouse keratitis model assessed as reduction in clinical scores at 1 mg/ml administered as 10 uL eye drop every 5 mins for first 1 hr and every 30 mins for next 7 hrs; format: functional, organism-based; settings: route ou, time 8.0 hrs
[14] = test system: Candida albicans; experiment: Antifungal activity against Candida albicans CGMCC 2.2086 infected in C57BL/6 mouse keratitis model assessed as reduction in fungal cell count at 1 mg/ml administered as 10 uL eye drop every 5 mins for first 1 hr and every 30 mins for next 7 hrs; format: functional, organism-based; settings: route ou, time 8.0 hrs
[15] = test system: Candida albicans; experiment: Antifungal activity against Candida albicans CGMCC 2.2086 infected in C57BL/6 mouse keratitis model assessed as reduction in mycelia in the eyes at 1 mg/ml administered as 10 uL eye drop every 5 mins for first 1 hr and every 30 mins for next 7 hrs by Schiff staining based assay; format: functional, organism-based; settings: route ou, time 8.0 hrs
[16] = Hemolytic activity in human red blood cells assessed as hemolysis incubated for 1 hr; format: toxicity, cell-based, Erythrocyte
[17] = Hemolytic activity in human red blood cells assessed as hemolysis rate at 512 uM incubated for 1 hr relative to control; format: toxicity, cell-based, Erythrocyte; settings: read-out: Activity
[18] = Cytotoxicity against porcine IPEC-J2 cells assessed as reduction in cell viability at 128 uM incubated for 4 hrs by MTT assay; format: toxicity, cell-based, Sus scrofa; settings: pig, ipec-j2, 4 h
[19] = test system: HEK293; experiment: Cytotoxicity against HEK293 cells assessed as reduction in cell viability at 128 uM incubated for 4 hrs by MTT assay; format: toxicity, cell-based; settings: human, hek293, 4 h
[20] = test system: Candida albicans; experiment: Antifungal activity against Candida albicans CGMCC 2.2086 assessed as inhibition of fungal growth incubated for 48 hrs in presence of NaCl; format: functional
[21] = test system: Candida albicans; experiment: Antifungal activity against Candida albicans CGMCC 2.2086 assessed as inhibition of fungal growth incubated for 48 hrs in presence of KCl; format: functional
[22] = test system: Candida albicans; experiment: Antifungal activity against Candida albicans CGMCC 2.2086 assessed as inhibition of fungal growth incubated for 48 hrs in presence of NH4Cl; format: functional
[23] = test system: Candida albicans; experiment: Antifungal activity against Candida albicans CGMCC 2.2086 assessed as inhibition of fungal growth incubated for 48 hrs in presence of MgCl2; format: functional
[24] = test system: Candida albicans; experiment: Antifungal activity against Candida albicans CGMCC 2.2086 assessed as inhibition of fungal growth incubated for 48 hrs in presence of ZnCl2; format: functional
[25] = test system: Candida albicans; experiment: Antifungal activity against Candida albicans CGMCC 2.2086 assessed as inhibition of fungal growth incubated for 48 hrs in presence of FeCl3; format: functional
[26] = test system: Candida albicans; experiment: Antifungal activity against Candida albicans CGMCC 2.2086 assessed as inhibition of fungal growth incubated for 48 hrs in presence of CaCl2; format: functional
[27] = Stability of the compound in NaCl assessed as change in secondary structure by CD spectra analysis; format: physicochemical
[28] = Stability of the compound in KCl assessed as change in secondary structure by CD spectra analysis; format: physicochemical
[29] = Stability of the compound in NH4Cl assessed as change in secondary structure by CD spectra analysis; format: physicochemical
[30] = Stability of the compound in MgCl2 assessed as change in secondary structure by CD spectra analysis; format: physicochemical
[31] = Stability of the compound in ZnCl2 assessed as change in secondary structure by CD spectra analysis; format: physicochemical
[32] = Stability of the compound in FeCl3 assessed as change in secondary structure by CD spectra analysis; format: physicochemical
[33] = Stability of the compound in CaCl2 assessed as change in secondary structure by CD spectra analysis; format: physicochemical

SMILES | MIC95 [1] [µM] | MIC95 [2] [µM] | MIC95 [3] [µM] | MIC95 [4] [µM] | MIC95 [5] [µM] | MIC95 [6] [µM] | MIC95 [7] [µM] | MIC95 [8] [µM] | MIC95 [9] [µM] | MIC95 [10] [µM] | MIC95 [11] [µM] | MIC95 [12] [µM] | further results
C[C@@H]1[C@H](O)[C@@H](C)/C=C/C=C/C=C/C=C/C=C/C=C/C=C/[C@H](O[C@@H]2O[C@H](C)[C@@H](O)[C@H](N)[C@@H]2O)C[C@@H]2O[C@](O)(C[C@@H](O)C[C@@H](O)[C@H](O)CC[C@@H](O)C[C@@H](O)CC(=O)O[C@H]1C)C[C@H](O)[C@H]2C(=O)O [AMPHOTERICIN B] | 0.25 (≈ 0.231 µg/mL) | 0.25 (≈ 0.231 µg/mL) | 0.25 (≈ 0.231 µg/mL) | 0.25 (≈ 0.231 µg/mL) | 0.25 (≈ 0.231 µg/mL) | 0.25 (≈ 0.231 µg/mL) | 0.25 (≈ 0.231 µg/mL) | 0.25 (≈ 0.231 µg/mL) | 0.25 (≈ 0.231 µg/mL) | 0.25 (≈ 0.231 µg/mL) | 0.25 (≈ 0.231 µg/mL) | 0.25 (≈ 0.231 µg/mL) | Activity [13]: Active; Activity [14]: Active; Activity [15]: Active; Mycelia In The Eyes Was Either Absent Or Minimal
CC[C@H](C)[C@H](N)C(=O)N[C@H](C(=O)N[C@H](CCCNC(=N)N)C(=O)N[C@@H](CCCNC(=N)N)C(=O)N[C@@H](Cc1c[nH]cn1)C(=O)N[C@H](C(=O)N[C@H](C(=O)N[C@H](C(=O)N[C@H](C(=O)N[C@H](CCCNC(=N)N)C(=O)N[C@@H](CCCNC(=N)N)C(=O)N[C@@H](Cc1c[nH]cn1)C(=O)N[C@H](C(=O)N[C@H](C(=O)N[C@H](C(=O)N[C@H](C(=O)N[C@H](CCCNC(=N)N)C(=O)N[C@@H](CCCNC(=N)N)C(=O)N[C@@H](Cc1c[nH]cn1)C(=O)N[C@H](C(=O)N[C@H](C(=O)N[C@H](C(=O)N[C@H](C(=O)N[C@H](CCCNC(=N)N)C(=O)N[C@@H](CCCNC(=N)N)C(=O)N[C@@H](Cc1c[nH]cn1)C(=O)N[C@H](C(=O)N[C@H](C(N)=O)[C@@H](C)CC)[C@@H](C)CC)[C@@H](C)CC)[C@@H](C)CC)[C@@H](C)CC)[C@@H](C)CC)[C@@H](C)CC)[C@@H](C)CC)[C@@H](C)CC)[C@@H](C)CC)[C@@H](C)CC)[C@@H](C)CC)[C@@H](C)CC)[C@@H](C)CC)[C@@H](C)CC | 4 (≈ 14.5 µg/mL) | 4 (≈ 14.5 µg/mL) | 4 (≈ 14.5 µg/mL) | 4 (≈ 14.5 µg/mL) | 8 (≈ 29 µg/mL) | 4 (≈ 14.5 µg/mL) | 8 (≈ 29 µg/mL) | 4 (≈ 14.5 µg/mL) | 8 (≈ 29 µg/mL) | 4 (≈ 14.5 µg/mL) | 8 (≈ 29 µg/mL) | 4 (≈ 14.5 µg/mL) | HC50 at 1 h [16]: > 512 µM; hemolysis at 1 h, 512 µM [17]: 38.9%; Activity [18]: Toxic; Activity [19]: Toxic; MIC95 [20]: 32 µM; MIC95 [21]: 8 µM; MIC95 [22]: 8 µM; MIC95 [23]: 8 µM; MIC95 [24]: 16 µM; MIC95 [25]: 16 µM; MIC95 [26]: 16 µM; Stability [27]: Unstable; Stability [28]: Stable; Stability [29]: Stable; Stability [30]: Stable; Stability [31]: Stable; Stability [32]: Stable; Stability [33]: Stable
